From ChEMBL document CHEMBL1201862, “PubChem BioAssay data set” (2004)
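In this assay, cells in 96-well plates receive the compound at five concentrations for 48 hours. Endpoints are linearly interpolated between the surrounding concentrations. Here, GI50 denotes the concentration required for 50% inhibition of growth.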 The source made the active and inactive calls. Cut-off read from the data, not from the text of the source: active = GI50 up to about 1.1 µM and inactive = higher. Non-standard residues stand in square brackets, D forms with d. Residues, ends and D or L forms follow the SMILES beside them. ξ: configuration not given here. *: point of attachment. NMeF = CN[C@@H](Cc1ccccc1)C(=O)O; NMeV = CN[C@H](C(=O)O)C(C)C; ξNMeV = CNC(C(=O)O)C(C)C; Boc = CC(C)(C)OC(=O)*; OBn = c1ccc(CO*)cc1

Key:
Assay in all cases: DTP human tumour cell line panel, 48 h
HCT-116 = tested on: HCT-116
DMS-114 = tested on: DMS-114
KM12 = tested on: KM12
SNB-19 = tested on: SNB-19
OVCAR-5 = tested on: OVCAR-5
SNB-78 = tested on: SNB-78
NCI-H23 = tested on: NCI-H23
UACC-62 = tested on: UACC-62
A549 = tested on: A549
TK-10 = tested on: TK-10
SF-268 = tested on: SF-268
CCRF-CEM = tested on: CCRF-CEM
RXF 631 = tested on: RXF 631
MOLT-4 = tested on: MOLT-4
SK-OV-3 = tested on: SK-OV-3
U-251 = tested on: U-251
SK-MEL-28 = tested on: SK-MEL-28
HOP-92 = tested on: HOP-92
IGROV-1 = tested on: IGROV-1
RXF 393 = tested on: RXF 393
ACHN = tested on: ACHN
NCI-H522 = tested on: NCI-H522
HL-60 = tested on: HL-60
SR = tested on: SR
UO-31 = tested on: UO-31
EKVX = tested on: EKVX
XF498 = tested on: XF498
HCT-15 = tested on: HCT-15
HOP-18 = tested on: HOP-18
OVCAR-3 = tested on: OVCAR-3
M19-MEL = tested on: M19-MEL
OVCAR-4 = tested on: OVCAR-4
HCC 2998 = tested on: HCC 2998
M14 = tested on: M14
SW-620 = tested on: SW-620
COLO 205 = tested on: COLO 205
NCI-H460 = tested on: NCI-H460
SF-295 = tested on: SF-295
KM-20L2 = tested on: KM-20L2
HT-29 = tested on: HT-29
LOX IMVI = tested on: LOX IMVI
K562 = tested on: K562
SN12C = tested on: SN12C
DMS-273 = tested on: DMS-273
Malme-3M = tested on: Malme-3M
786-0 = tested on: 786-0
HOP-62 = tested on: HOP-62
OVCAR-8 = tested on: OVCAR-8
LXFL 529 = tested on: LXFL 529
DLD-1 = tested on: DLD-1
CAKI-1 = tested on: CAKI-1
NCI-H226 = tested on: NCI-H226
RPMI-8226 = tested on: RPMI-8226
SF-539 = tested on: SF-539
SNB-75 = tested on: SNB-75
SK-MEL-5 = tested on: SK-MEL-5
UACC-257 = tested on: UACC-257
SK-MEL-2 = tested on: SK-MEL-2
A498 = tested on: A498

## C=CC1C2=C(C(=O)NCC2)C2OC(O)C3=C(CCNC3=O)C2C1C (configuration not stated)
HCT-116
  GI50: > 100 µM (inactive)
DMS-114
  GI50: > 100 µM (inactive)
KM12
  GI50: > 100 µM (inactive)
SNB-19
  GI50: > 100 µM (inactive)
OVCAR-5
  GI50: > 100 µM (inactive)
SNB-78
  GI50: > 100 µM (inactive)
NCI-H23
  GI50: > 100 µM (inactive)
UACC-62
  GI50: > 100 µM (inactive)
A549
  GI50: > 100 µM (inactive)
TK-10
  GI50: > 100 µM (inactive)
SF-268
  GI50: > 100 µM (inactive)
CCRF-CEM
  GI50: > 100 µM (inactive)
RXF 631
  GI50: > 100 µM (inactive)
MOLT-4
  GI50: > 100 µM (inactive)
SK-OV-3
  GI50: > 100 µM (inactive)
U-251
  GI50: > 100 µM (inactive)
SK-MEL-28
  GI50: > 100 µM (inactive)
HOP-92
  GI50: > 100 µM (inactive)
IGROV-1
  GI50: > 100 µM (inactive)
RXF 393
  GI50: > 100 µM (inactive)
ACHN
  GI50: > 100 µM (inactive)
NCI-H522
  GI50: > 100 µM (inactive)
HL-60
  GI50: > 100 µM (inactive)
SR
  GI50: > 100 µM (inactive)
UO-31
  GI50: > 100 µM (inactive)
EKVX
  GI50: > 100 µM (inactive)

## CCOC(=O)C1(CC)CCCCC(=O)N1 (configuration not stated)
DMS-114
  GI50: > 100 µM (inactive)
SNB-78
  GI50: > 100 µM (inactive)
NCI-H23
  GI50: > 100 µM (inactive)
XF498
  GI50: > 100 µM (inactive)
UACC-62
  GI50: > 100 µM (inactive)
HCT-15
  GI50: > 100 µM
HOP-18
  GI50: > 100 µM (inactive)
A549
  GI50: > 100 µM (inactive)
OVCAR-3
  GI50: > 100 µM (inactive)
M19-MEL
  GI50: > 100 µM (inactive)
TK-10
  GI50: > 100 µM (inactive)
SF-268
  GI50: > 100 µM (inactive)
CCRF-CEM
  GI50: > 100 µM (inactive)
OVCAR-4
  GI50: > 100 µM (inactive)
HCC 2998
  GI50: > 100 µM (inactive)
M14
  GI50: > 100 µM (inactive)
SW-620
  GI50: > 100 µM (inactive)
COLO 205
  GI50: > 100 µM (inactive)
NCI-H460
  GI50: > 100 µM (inactive)
SF-295
  GI50: > 100 µM (inactive)
SK-OV-3
  GI50: > 100 µM (inactive)
KM-20L2
  GI50: > 100 µM (inactive)
HT-29
  GI50: > 100 µM (inactive)
U-251
  GI50: > 100 µM (inactive)
LOX IMVI
  GI50: > 100 µM (inactive)
SK-MEL-28
  GI50: > 100 µM (inactive)
K562
  GI50: > 100 µM (inactive)
SN12C
  GI50: > 100 µM (inactive)
HOP-92
  GI50: > 100 µM (inactive)
DMS-273
  GI50: > 100 µM (inactive)
Malme-3M
  GI50: > 100 µM (inactive)
786-0
  GI50: > 100 µM (inactive)
HOP-62
  GI50: > 100 µM (inactive)
IGROV-1
  GI50: > 100 µM (inactive)
RXF 393
  GI50: > 100 µM (inactive)
ACHN
  GI50: > 100 µM (inactive)
OVCAR-8
  GI50: > 100 µM (inactive)
HL-60
  GI50: 36.2 µM (inactive)
LXFL 529
  GI50: > 100 µM (inactive)
DLD-1
  GI50: > 100 µM (inactive)
UO-31
  GI50: > 100 µM (inactive)
EKVX
  GI50: > 100 µM (inactive)
CAKI-1
  GI50: > 100 µM (inactive)

## COC(=O)C1=C(C(=O)OC)C2(C(=O)OC)OC1(OC)C(C1(C(=O)OC)C(C(=O)OC)=C1C(=O)OC)=C2C(=O)OC (configuration not stated)
HCT-116
  GI50: > 100 µM (inactive)
DMS-114
  GI50: > 100 µM (inactive)
KM12
  GI50: > 100 µM (inactive)
SNB-19
  GI50: > 100 µM (inactive)
OVCAR-5
  GI50: > 100 µM (inactive)
NCI-H226
  GI50: > 100 µM (inactive)
SNB-78
  GI50: > 100 µM (inactive)
NCI-H23
  GI50: > 100 µM (inactive)
XF498
  GI50: > 100 µM (inactive)
UACC-62
  GI50: > 100 µM (inactive)
HCT-15
  GI50: > 100 µM
HOP-18
  GI50: > 100 µM (inactive)
A549
  GI50: > 100 µM (inactive)
OVCAR-3
  GI50: > 100 µM (inactive)
M19-MEL
  GI50: > 100 µM (inactive)
TK-10
  GI50: > 100 µM (inactive)
SF-268
  GI50: > 100 µM (inactive)
RPMI-8226
  GI50: > 100 µM (inactive)
CCRF-CEM
  GI50: > 100 µM (inactive)
SF-539
  GI50: > 100 µM (inactive)
HCC 2998
  GI50: > 100 µM (inactive)
M14
  GI50: > 100 µM (inactive)
SW-620
  GI50: > 100 µM (inactive)
COLO 205
  GI50: > 100 µM (inactive)
NCI-H460
  GI50: > 100 µM (inactive)
MOLT-4
  GI50: > 100 µM (inactive)
SF-295
  GI50: > 100 µM (inactive)
SK-OV-3
  GI50: > 100 µM (inactive)
KM-20L2
  GI50: > 100 µM (inactive)
HT-29
  GI50: > 100 µM (inactive)
U-251
  GI50: > 100 µM (inactive)
LOX IMVI
  GI50: > 100 µM (inactive)
SK-MEL-28
  GI50: > 100 µM (inactive)
K562
  GI50: > 100 µM (inactive)
SN12C
  GI50: > 100 µM (inactive)
HOP-92
  GI50: > 100 µM (inactive)
DMS-273
  GI50: > 100 µM (inactive)
SNB-75
  GI50: > 100 µM (inactive)
SK-MEL-5
  GI50: > 100 µM (inactive)
Malme-3M
  GI50: > 100 µM (inactive)
786-0
  GI50: > 100 µM (inactive)
HOP-62
  GI50: > 100 µM (inactive)
IGROV-1
  GI50: > 100 µM (inactive)
RXF 393
  GI50: > 100 µM (inactive)
ACHN
  GI50: > 100 µM (inactive)
OVCAR-8
  GI50: > 100 µM (inactive)
UACC-257
  GI50: > 100 µM (inactive)
SK-MEL-2
  GI50: > 100 µM (inactive)
NCI-H522
  GI50: > 100 µM (inactive)
HL-60
  GI50: > 100 µM (inactive)
SR
  GI50: > 100 µM (inactive)
LXFL 529
  GI50: > 100 µM (inactive)
DLD-1
  GI50: > 100 µM (inactive)
UO-31
  GI50: > 100 µM (inactive)
EKVX
  GI50: > 100 µM (inactive)

## CC(C)C(C(=O)N(C)[C@H](C(=O)N1CCC[C@H]1C(=O)N(C)[C@@H](Cc1ccccc1)C(=O)OCc1ccccc1)C(C)C)N(C)C(=O)[C@@H](NC(=O)OC(C)(C)C)C(C)C (some centres not stated) (Boc-V[ξNMeV][NMeV]P[NMeF]-OBn)
HCT-116
  GI50: 10.8 µM (inactive)
DMS-114
  GI50: 11 µM (inactive)
KM12
  GI50: > 10 µM (inactive)
SNB-19
  GI50: > 31.6 µM (inactive)
OVCAR-5
  GI50: > 31.6 µM (inactive)
NCI-H226
  GI50: > 63.5 µM (inactive)
SNB-78
  GI50: > 31.6 µM (inactive)
NCI-H23
  GI50: 19.5 µM (inactive)
XF498
  GI50: 6.19 µM (inactive)
UACC-62
  GI50: > 31.6 µM (inactive)
HCT-15
  GI50: 8.65 µM
HOP-18
  GI50: 32.1 µM (inactive)
A549
  GI50: 18.7 µM (inactive)
OVCAR-3
  GI50: 15.3 µM (inactive)
A498
  GI50: 19.5 µM (inactive)
M19-MEL
  GI50: 30 µM (inactive)
TK-10
  GI50: 29.2 µM (inactive)
SF-268
  GI50: > 31.6 µM (inactive)
RPMI-8226
  GI50: 4.97 µM (inactive)
CCRF-CEM
  GI50: 11.2 µM (inactive)
OVCAR-4
  GI50: > 29.5 µM (inactive)
SF-539
  GI50: > 31.6 µM (inactive)
HCC 2998
  GI50: > 10 µM (inactive)
M14
  GI50: 85.1 µM (inactive)
SW-620
  GI50: > 31.6 µM (inactive)
COLO 205
  GI50: 11.4 µM (inactive)
NCI-H460
  GI50: 15.8 µM (inactive)
MOLT-4
  GI50: 5.37 µM (inactive)
SF-295
  GI50: 19.8 µM (inactive)
SK-OV-3
  GI50: > 31.6 µM (inactive)
KM-20L2
  GI50: > 31.6 µM (inactive)
HT-29
  GI50: 14.2 µM (inactive)
U-251
  GI50: > 31.6 µM (inactive)
LOX IMVI
  GI50: 23.9 µM (inactive)
SK-MEL-28
  GI50: > 31.6 µM (inactive)
K562
  GI50: 4.42 µM (inactive)
SN12C
  GI50: > 100 µM (inactive)
HOP-92
  GI50: 10.2 µM (inactive)
DMS-273
  GI50: 5.48 µM (inactive)
SNB-75
  GI50: 12 µM (inactive)
SK-MEL-5
  GI50: 7.14 µM (inactive)
Malme-3M
  GI50: 34.8 µM (inactive)
786-0
  GI50: > 43.3 µM (inactive)
HOP-62
  GI50: > 31.6 µM (inactive)
IGROV-1
  GI50: 22.5 µM (inactive)
RXF 393
  GI50: 24.6 µM (inactive)
ACHN
  GI50: > 57.4 µM (inactive)
OVCAR-8
  GI50: > 31.6 µM (inactive)
UACC-257
  GI50: 9.33 µM (inactive)
SK-MEL-2
  GI50: > 31.6 µM (inactive)
NCI-H522
  GI50: > 100 µM (inactive)
HL-60
  GI50: 4.58 µM (inactive)
SR
  GI50: 7.36 µM (inactive)
LXFL 529
  GI50: 15.1 µM (inactive)
DLD-1
  GI50: 24.9 µM (inactive)
UO-31
  GI50: 30.4 µM (inactive)
EKVX
  GI50: > 31.6 µM (inactive)
CAKI-1
  GI50: > 31.6 µM (inactive)
